In patent publication US9732075B2, “Benzimidazole-proline derivatives” (IDORSIA PHARMACEUTICALS LTD, priority 2012, dated 2017) one finds IC50 data, which are given here for 51 compounds.

pIC50: −log10 of the molar value.

Assay [1] deals with human orexin-2 receptor (Homo sapiens (Human), UniProt O43614). As to the kind of experiment: In vitro assay: intracellular calcium measurements (FLIPR), antagonistic activity. Type of assay: cell-based. As to conditions: CHO cells expressing human orexin-2 receptor, orexin-A agonist, geometric mean, read-out: IC50 Ox2. In short, it runs like this: (§1)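 Orexin-A-evoked calcium rise (3 nM final, roughly EC70) was recorded with fluo-4 in recombinant CHO cells, human receptor subtype 1 or 2.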
Sequence of human orexin-2 receptor (O43614 whole entry): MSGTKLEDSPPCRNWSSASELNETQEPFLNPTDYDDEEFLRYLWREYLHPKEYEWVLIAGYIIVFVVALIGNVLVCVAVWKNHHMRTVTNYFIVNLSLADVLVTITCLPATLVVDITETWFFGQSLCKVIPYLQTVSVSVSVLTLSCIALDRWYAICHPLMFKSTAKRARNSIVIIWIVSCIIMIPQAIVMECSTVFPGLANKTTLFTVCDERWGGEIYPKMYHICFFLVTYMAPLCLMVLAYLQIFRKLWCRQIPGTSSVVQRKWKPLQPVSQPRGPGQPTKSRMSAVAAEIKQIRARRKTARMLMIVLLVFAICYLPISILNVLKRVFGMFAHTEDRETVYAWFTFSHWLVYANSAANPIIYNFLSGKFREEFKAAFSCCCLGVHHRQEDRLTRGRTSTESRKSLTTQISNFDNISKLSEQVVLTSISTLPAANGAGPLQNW
A general note: Calcium flux is commonly read through the fluorescence of an indicator in the cells.

Assay [2] has as its target human orexin-1 receptor (Homo sapiens (Human), UniProt O43613). The description is as above. As to conditions: CHO cells expressing human orexin-1 receptor, orexin-A agonist, geometric mean, read-out: IC50 Ox1. Type of assay: cell-based. In outline: as §1

Sequence of human orexin-1 receptor (O43613 whole entry): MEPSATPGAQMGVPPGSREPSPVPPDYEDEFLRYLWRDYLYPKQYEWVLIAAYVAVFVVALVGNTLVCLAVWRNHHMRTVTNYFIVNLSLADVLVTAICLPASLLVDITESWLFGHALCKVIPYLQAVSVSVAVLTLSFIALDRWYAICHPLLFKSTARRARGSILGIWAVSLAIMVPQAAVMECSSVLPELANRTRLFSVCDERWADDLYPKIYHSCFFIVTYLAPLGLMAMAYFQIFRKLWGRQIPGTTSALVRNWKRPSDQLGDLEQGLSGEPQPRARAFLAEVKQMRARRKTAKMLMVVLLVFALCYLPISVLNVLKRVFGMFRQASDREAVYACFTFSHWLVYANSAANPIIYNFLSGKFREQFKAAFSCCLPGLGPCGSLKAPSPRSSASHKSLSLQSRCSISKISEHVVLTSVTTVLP

The term pIC50 denotes the IC50 on a negative log10 scale, so that one unit is a factor of ten. Consider `C=C1CN(C(=O)c2nc(C)sc2-c2ccc(Cl)cc2)C(C)(c2nc3cc(OC)ccc3[nH]2)C1` (racemic) [Ex. 6.146], for which the negative-log IC50 (pIC50) in assay [1] is 7.48; in assay [2], 7.80.
As to `Cc1nc(C(=O)N2CC[C@H](C)[C@H]2c2nc3cc(Cl)cc(C)c3[nH]2)c(-c2cccc(Cl)c2)s1` [Ex. 4.28], the figures for the pIC50 in assay [1] and in assay [2] were 6.31 and 8.70, respectively.
For `COc1ccc(OC)c2[nH]c([C@]3(C)CCCN3C(=O)c3cc(C)ccc3-n3nccn3)nc12` [Ex. 5.31], the pIC50 in assay [1] is 6.13; in assay [2] it was 7.36.
As to `C=C1C[C@@H](c2nc3cc(OC)ccc3[nH]2)N(C(=O)c2cc(C)ccc2-n2nccn2)C1` [Ex. 6.12], the pIC50 in assay [1] was 8.22; in assay [2] it was 6.50.
Regarding `Cc1ccc(-n2nccn2)c(C(=O)N2CCC[C@@]2(C)c2nc3cc(F)c(Cl)cc3[nH]2)c1` [Ex. 5.12], the negative logarithm of the IC50 (pIC50) in assay [1] was 6.87; in assay [2], 7.82.
Turning to `C=C1C[C@@H](c2nc3cc(OC)ccc3[nH]2)N(C(=O)c2nc(C)sc2-c2ccc(F)c(Br)c2)C1` [Ex. 6.24], the figures for the pIC50 in assay [1] and in assay [2] were 7.77 and 7.28, respectively.
Consider `C=C1C[C@@H](c2nc3cc(OC)ccc3[nH]2)N(C(=O)c2nccnc2-c2ccc(C)cc2)C1` [Ex. 6.4], for which the pIC50 was 6.93 in assay [1] and 5.60 in assay [2].
As for `Cc1cc2[nH]c([C@@H]3[C@@H](C)CCN3C(=O)c3c(-n4nccn4)ccc(C)c3F)nc2cc1Cl` [Ex. 4.75], the negative logarithm of the IC50 (pIC50) in assay [1] is 6.20; in assay [2], 8.10.
The matching figures for `COc1cc(C(=O)N2CCC[C@@]2(C)c2nc3cc(F)c(Br)cc3[nH]2)c(-n2nccn2)cc1OC` [Ex. 5.125]: 6.90 and 7.08.
On to `C=C1CC(c2nc3cc4ccccc4cc3[nH]2)N(C(=O)c2cc(C)sc2-c2ccc(C)c(C)c2)C1` (stereo not drawn) [Ex. 6.85], for which the values for the pIC50 in assay [1] and in assay [2] were 7.38 and 6.97, respectively.
Regarding `Cc1ccc(-c2ncccn2)c(C(=O)N2CC[C@H](C)[C@H]2c2nc3cc(C)c(C)cc3[nH]2)c1` [Ex. 4.183], the pIC50 is 5.65 in assay [1] and 7.03 in assay [2].
Regarding `Cc1cc(C(=O)N2CCC[C@@]2(C)c2nc3c(C)c(Cl)ccc3[nH]2)c(-n2nccn2)cc1C` [Ex. 5.41], the pIC50 in assay [1] and in assay [2] was 8.70 in each case.
Turning to `C=C1C[C@@H](c2nc3cccc(C)c3[nH]2)N(C(=O)c2nc(C)sc2-c2cccc(OC)c2)C1` [Ex. 6.114], the pIC50 in assay [1] is 9.15; in assay [2], 7.80.
As to `C=C1C[C@@H](c2nc3cc(OC)ccc3[nH]2)N(C(=O)c2ccsc2-c2cccc(C)c2)C1` [Ex. 6.38], the pIC50 was 7.72 in assay [1] and 6.57 in assay [2].
Consider `Cc1nc(C(=O)N2CCCC2c2nc3c(Cl)cc(C(F)(F)F)cc3[nH]2)c(-c2ccccc2)s1` (stereo not drawn) [Ex. 1.125], for which the values for the pIC50 in assay [1] and in assay [2] were 7.14 and 7.41, respectively.
For the compound `Cc1ccc(-c2ccccc2)c(C(=O)N2CC[C@H](C)[C@H]2c2nc3cc(Cl)c(C)cc3[nH]2)c1` [Ex. 4.116], the figures for the pIC50 in assay [1] and in assay [2] were 6.70 and 8.22, respectively.
On to `Cc1ccc(-n2nccn2)c(C(=O)N2CC[C@H](C)[C@H]2c2nc3c(C(C)C)cccc3[nH]2)c1` [Ex. 4.38], for which the results for the pIC50 in assay [1] and in assay [2] were 6.12 and 7.26, respectively.
Take `COc1ccc(-n2nccn2)c(C(=O)N2CCC[C@@]2(C)c2nc3cc(C(F)(F)F)ccc3[nH]2)c1F` [Ex. 5.168]: the negative-log IC50 (pIC50) in assay [1] was 6.24; in assay [2] it was 7.19.
On to `Cc1ccc(-c2ncccn2)c(C(=O)N2CC[C@H](C)[C@H]2c2nc3cc(Cl)cc(C)c3[nH]2)c1` [Ex. 4.182], for which the pIC50 was 6.16 in assay [1] and 8.15 in assay [2].
As for `COc1cc2nc([C@]3(C)CCCN3C(=O)c3cc(C)ccc3-c3ncccn3)[nH]c2cc1OC` [Ex. 5.280], the negative-log IC50 (pIC50) in assay [1] is 7.80; in assay [2] it was 7.44.
The matching figures for `Cc1nc(C(=O)N2CC[C@H](C)[C@H]2c2nc3cc(C(F)(F)F)ccc3[nH]2)c(-c2ccc(F)c(F)c2)s1` [Ex. 4.143]: 5.43 and 7.62.
As to `COc1ccc(-n2nccn2)c(C(=O)N2CC[C@H](C)[C@H]2c2nc3cc(Cl)c(C)cc3[nH]2)c1` [Ex. 4.74], the negative logarithm of the IC50 (pIC50) in assay [1] was 7.11; in assay [2], 8.40.
For `Cc1cc2[nH]c([C@@H]3[C@@H](C)CCN3C(=O)c3cc(Cl)ccc3-n3nccn3)nc2cc1Cl` [Ex. 4.71], the negative-log IC50 (pIC50) in assay [1] is 6.88; in assay [2] it was 8.15.
`Cc1cc(Cl)cc2[nH]c([C@@H]3[C@@H](C)CCN3C(=O)c3ccccc3-n3nccn3)nc12` [Ex. 4.101]: the pIC50 is 6.74 in assay [1] and 7.74 in assay [2].
On to `COc1cc2nc([C@@H]3[C@@H](C)CCN3C(=O)c3sc(C)nc3-c3ccc(C)cc3)[nH]c2cc1OC` [Ex. 4.51], for which the negative logarithm of the IC50 (pIC50) in assay [1] was 6.17; in assay [2], 7.00.
For `Cc1nc(C(=O)N2CC[C@H](C)[C@H]2c2nc3c(C)cc(Cl)cc3[nH]2)c(-c2ccc(F)cc2)s1` [Ex. 4.100], the negative-log IC50 (pIC50) in assay [1] was 5.89; in assay [2], 8.22.
For `COc1ccc(-c2ccc(C)cc2C(=O)N2CCC[C@@]2(C)c2nc3c(C)c(C)ccc3[nH]2)cc1` [Ex. 5.112], the values for the negative-log IC50 (pIC50) in assay [1] and in assay [2] were 7.80 and 7.92, respectively.
For the compound `Cc1cccc(-c2ccc(C)cc2C(=O)N2CCC[C@@]2(C)c2nc3cc(C)c(C)cc3n2CCF)c1` [Ex. 7.28], the pIC50 was 7.72 in assay [1] and 7.85 in assay [2].
Turning to `Cc1ccc(-n2nccn2)c(C(=O)N2CCC[C@@]2(C)c2nc3cc(F)c(Br)cc3[nH]2)c1F` [Ex. 5.124], the pIC50 was 6.39 in assay [1] and 6.95 in assay [2].
Turning to `C=C1C[C@@H](c2nc3cc(OC)ccc3[nH]2)N(C(=O)c2nc(C3CC3)sc2-c2cccc(C)c2)C1` [Ex. 6.26], the values for the pIC50 in assay [1] and in assay [2] were 7.62 and 7.59, respectively.
Consider `Cc1c(Cl)ccc2[nH]c([C@]3(C)CCCN3C(=O)c3cc(C(F)(F)F)ccc3-n3nccn3)nc12` [Ex. 5.40], for which the figures for the negative-log IC50 (pIC50) in assay [1] and in assay [2] were 7.04 and 7.36, respectively.
The matching figures for `CO[C@@H]1C[C@@H](c2nc3ccc(Cl)c(C)c3[nH]2)N(C(=O)c2nc(C)sc2-c2ccc(C)cc2)C1` [Ex. 3.36]: 8.05 and 8.30.
Taken in the same sequence, the figures for `C=C1CC(c2nc3cc(C)c(C)cc3[nH]2)N(C(=O)c2cc(C)sc2-c2ccc(C)c(C)c2)C1` (racemic) [Ex. 6.75] were 8.40 and 8.10.
On to `COc1cccc(-c2ccc(OC)c(F)c2C(=O)N2CCC[C@@]2(C)c2nc3c(C)c(Cl)ccc3[nH]2)c1` [Ex. 5.296], for which the pIC50 in assay [1] was 7.51; in assay [2], 7.60.
Consider `Cc1ccc(-c2ccc(C)cc2C(=O)N2CCC[C@@]2(C)c2nc3cc(C)c(C)cc3n2CC2CC2)cc1` [Ex. 7.39], for which the negative logarithm of the IC50 (pIC50) in assay [1] is 7.21; in assay [2], 7.37.
Take `Cc1ccc(-c2ccccc2F)c(C(=O)N2CCC[C@@]2(C)c2nc3cc(C(F)(F)F)c(Cl)cc3[nH]2)c1` [Ex. 5.151]: the negative-log IC50 (pIC50) was 7.40 in assay [1] and 7.70 in assay [2].
As for `Cc1cccc(-c2ccc(C)cc2C(=O)N2CCC[C@@]2(C)c2nc3cc(C)c(C)cc3n2C)c1` [Ex. 7.25], the pIC50 in assay [1] was 7.74; in assay [2] it was 7.82.
With `CO[C@@H]1C[C@@H](c2nc3c(C)c(Cl)ccc3[nH]2)N(C(=O)c2nc(C)sc2-c2ccccc2)C1` [Ex. 3.6], the pIC50 is 8.40 in assay [1] and 8.30 in assay [2].
Take `Cc1ccc(-c2ncccn2)c(C(=O)N2CCC[C@@]2(C)c2nc3cc(C)c(C)cc3[nH]2)c1` [Ex. 5.284]: the pIC50 in assay [1] is 7.74; in assay [2], 8.00.
Take `Cc1ccc(-c2cccc(F)c2)c(C(=O)N2CCC[C@@]2(C)c2nc3cc(C)c(C)cc3n2C)c1` [Ex. 7.30]: the negative logarithm of the IC50 (pIC50) in assay [1] is 7.92; in assay [2], 8.05.
Take `COc1ccc2nc([C@@H]3CCCN3C(=O)c3ccccc3-c3ccc(C)c(C)c3)[nH]c2c1` [Ex. 1.26]: the negative logarithm of the IC50 (pIC50) in assay [1] was 7.66; in assay [2], 6.90.
As for `CO[C@H]1CN(C(=O)c2cc(F)ccc2-n2nccn2)C(C)(c2nc3c(C)c(Cl)ccc3[nH]2)C1` (stereo partly drawn) [Ex. 3.43], the pIC50 in assay [1] is 7.89; in assay [2] it was 8.00.
Consider `C=C1C[C@@H](c2nc3cc(OC)ccc3[nH]2)N(C(=O)c2nc(C3CC3)sc2-c2ccc(C)c(F)c2)C1` [Ex. 6.25], for which the values for the negative logarithm of the IC50 (pIC50) in assay [1] and in assay [2] were 7.28 and 6.81, respectively.
Turning to `Cc1ccc(-n2nccn2)c(C(=O)N2CCC[C@@]2(C)c2nc3c(F)c(F)ccc3[nH]2)c1` [Ex. 5.27], the pIC50 in assay [1] was 6.29; in assay [2], 7.34.
Regarding `C=C1C[C@@H](c2nc3cc(C(C)(C)C)ccc3[nH]2)N(C(=O)c2c(C)cccc2-n2nccn2)C1` [Ex. 6.167], the negative-log IC50 (pIC50) in assay [1] was 7.60; in assay [2], 6.24.
Taken in the same sequence, the figures for `COc1ccc(-c2cccc(C(F)(F)F)c2)c(C(=O)N2CCC[C@@]2(C)c2nc3ccc(Cl)c(C)c3[nH]2)c1F` [Ex. 5.303] were 7.68 and 7.54.
Regarding `C=C1CN(C(=O)c2nc(C)sc2-c2ccc(C)c(C)c2)C(C)(c2nc3cc(OC)ccc3[nH]2)C1` (racemic) [Ex. 6.145], the negative-log IC50 (pIC50) in assay [1] was 7.12; in assay [2], 7.68.
`COc1ccc2nc([C@@H]3CCCN3C(=O)c3cnc(C)nc3-c3ccccc3)[nH]c2c1` [Ex. 1.32]: the pIC50 in assay [1] was 6.86; in assay [2] it was 6.46.
Consider `CSc1ccc2[nH]c([C@@H]3CCCN3C(=O)c3cc(C)ccc3-n3cccn3)nc2c1` [Ex. 1.177], for which the negative-log IC50 (pIC50) in assay [1] was 7.52; in assay [2], 6.07.
Consider `Cc1ccc(-c2cccc(F)c2)c(C(=O)N2CCC[C@@]2(C)c2nc3cc(C)c(C)cc3n2CCF)c1` [Ex. 7.35], for which the negative-log IC50 (pIC50) in assay [1] is 7.70; in assay [2], 8.22.
Consider `Cc1ccc(-c2ccc(C#N)cc2)c(C(=O)N2CCC[C@@]2(C)c2nc3cc(C(F)(F)F)ccc3[nH]2)c1` [Ex. 5.193], for which the results for the pIC50 in assay [1] and in assay [2] were 6.69 and 7.62, respectively.
